Test results reported in ChEMBL document CHEMBL1201862, “PubChem BioAssay data set” (2004).
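All cell lines were grown in 96-well plates and treated with compound for 48 hours. Abbreviation: GI50, concentration required for 50% inhibition of growth.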 The source made the active and inactive calls. Cut-off read from the data, not from the text of the source: active = GI50 up to about 1.1 µM and inactive = higher.

Key:
Assay in all cases: DTP human tumour cell line panel, 48 h
[1] = system: TK-10
[2] = system: MOLT-4
[3] = system: Hs-578T
[4] = system: PC-3
[5] = system: OVCAR-3
[6] = system: SF-295
[7] = system: BT-549
[8] = system: HOP-62
[9] = system: NCI-H460
[10] = system: SN12C
[11] = system: HT-29
[12] = system: HOP-92
[13] = system: KM12
[14] = system: OVCAR-5
[15] = system: SW-620
[16] = system: OVCAR-8
[17] = system: NCI/ADR-RES
[18] = system: U-251
[19] = system: A549
[20] = system: HCT-116
[21] = system: MDA-MB-435
[22] = system: SK-MEL-5
[23] = system: RPMI-8226
[24] = system: RXF 393
[25] = system: CAKI-1
[26] = system: T47D
[27] = system: UACC-257
[28] = system: M14
[29] = system: NCI-H226
[30] = system: SK-MEL-2
[31] = system: DU-145
[32] = system: SNB-75
[33] = system: ACHN
[34] = system: SR
[35] = system: LOX IMVI
[36] = system: UO-31
[37] = system: SK-MEL-28
[38] = system: Malme-3M
[39] = system: SF-268
[40] = system: IGROV-1
[41] = system: SF-539
[42] = system: HL-60
[43] = system: K562
[44] = system: SK-OV-3
[45] = system: HCC 2998
[46] = system: UACC-62
[47] = system: CCRF-CEM
[48] = system: SNB-19
[49] = system: NCI-H23
[50] = system: MCF7
[51] = system: NCI-H522
[52] = system: EKVX
[53] = system: COLO 205
[54] = system: OVCAR-4
[55] = system: HCT-15
[56] = system: A498
[57] = system: 786-0
[58] = system: MDA-MB-231
[59] = system: MDA-N

## CC(O)=C1C(=O)CCC1=O
[1]
  GI50: > 100 µM (inactive)
[2]
  GI50: > 100 µM (inactive)
[3]
  GI50: > 100 µM (inactive)
[4]
  GI50: > 100 µM (inactive)
[5]
  GI50: > 100 µM (inactive)
[6]
  GI50: > 100 µM (inactive)
[7]
  GI50: > 100 µM (inactive)
[8]
  GI50: > 100 µM (inactive)
[9]
  GI50: > 100 µM (inactive)
[10]
  GI50: > 100 µM (inactive)
[11]
  GI50: > 100 µM (inactive)
[12]
  GI50: > 100 µM (inactive)
[13]
  GI50: > 100 µM (inactive)
[14]
  GI50: > 100 µM (inactive)
[15]
  GI50: > 100 µM (inactive)
[16]
  GI50: > 100 µM (inactive)
[17]
  GI50: > 100 µM (inactive)
[18]
  GI50: > 100 µM (inactive)
[19]
  GI50: > 100 µM (inactive)
[20]
  GI50: > 100 µM (inactive)
[21]
  GI50: > 100 µM (inactive)
[22]
  GI50: > 100 µM (inactive)
[23]
  GI50: > 100 µM (inactive)
[24]
  GI50: > 100 µM (inactive)
[25]
  GI50: > 100 µM (inactive)
[26]
  GI50: > 100 µM (inactive)
[27]
  GI50: > 100 µM (inactive)
[28]
  GI50: > 100 µM (inactive)
[29]
  GI50: > 100 µM (inactive)
[30]
  GI50: > 100 µM (inactive)
[31]
  GI50: > 100 µM (inactive)
[32]
  GI50: > 100 µM (inactive)
[33]
  GI50: > 100 µM (inactive)
[34]
  GI50: > 100 µM (inactive)
[35]
  GI50: > 100 µM (inactive)
[36]
  GI50: > 100 µM (inactive)
[37]
  GI50: > 100 µM (inactive)
[38]
  GI50: > 100 µM (inactive)
[39]
  GI50: > 100 µM (inactive)
[40]
  GI50: > 100 µM (inactive)
[41]
  GI50: > 100 µM (inactive)
[42]
  GI50: > 100 µM (inactive)
[43]
  GI50: > 100 µM (inactive)
[44]
  GI50: > 100 µM (inactive)
[45]
  GI50: > 100 µM (inactive)
[46]
  GI50: > 100 µM (inactive)
[47]
  GI50: > 100 µM (inactive)
[48]
  GI50: > 100 µM (inactive)
[49]
  GI50: > 100 µM (inactive)
[50]
  GI50: > 100 µM (inactive)
[51]
  GI50: > 100 µM (inactive)
[52]
  GI50: > 100 µM (inactive)
[53]
  GI50: > 100 µM (inactive)
[54]
  GI50: > 100 µM (inactive)

## CC(C)NCC(O)c1ccc(OCc2ccccc2)c(OCc2ccccc2)c1-c1ccccc1 (stereo unspecified)
[1]
  GI50: 2.35 µM (inactive)
[2]
  GI50: 2.05 µM (inactive)
[3]
  GI50: 1.34 µM (inactive)
[4]
  GI50: 1.53 µM (inactive)
[5]
  GI50: 1.8 µM (inactive)
[6]
  GI50: 2.05 µM (inactive)
[8]
  GI50: 1.79 µM (inactive)
[9]
  GI50: 1.79 µM (inactive)
[10]
  GI50: 1.75 µM (inactive)
[11]
  GI50: 1.66 µM (inactive)
[12]
  GI50: 2.62 µM (inactive)
[13]
  GI50: 2.16 µM (inactive)
[14]
  GI50: 1.77 µM (inactive)
[15]
  GI50: 1.63 µM (inactive)
[16]
  GI50: 1.73 µM (inactive)
[17]
  GI50: 2 µM (inactive)
[18]
  GI50: 1.67 µM (inactive)
[19]
  GI50: 1.72 µM (inactive)
[20]
  GI50: 1.79 µM (inactive)
[55]
  GI50: 1.82 µM
[21]
  GI50: 1.79 µM (inactive)
[22]
  GI50: 1.25 µM (inactive)
[23]
  GI50: 2.51 µM (inactive)
[24]
  GI50: 3 µM (inactive)
[25]
  GI50: 1.76 µM (inactive)
[26]
  GI50: 2.74 µM (inactive)
[27]
  GI50: 1.88 µM (inactive)
[28]
  GI50: 1.93 µM (inactive)
[29]
  GI50: 2.33 µM (inactive)
[30]
  GI50: 2.7 µM (inactive)
[31]
  GI50: 1.75 µM (inactive)
[32]
  GI50: 1.28 µM (inactive)
[33]
  GI50: 1.68 µM (inactive)
[34]
  GI50: 2.68 µM (inactive)
[35]
  GI50: 3.07 µM (inactive)
[36]
  GI50: 2.52 µM (inactive)
[56]
  GI50: 2.49 µM (inactive)
[37]
  GI50: 1.76 µM (inactive)
[38]
  GI50: 1.77 µM (inactive)
[39]
  GI50: 2.93 µM (inactive)
[40]
  GI50: 1.41 µM (inactive)
[57]
  GI50: 1.71 µM (inactive)
[41]
  GI50: 1.58 µM (inactive)
[43]
  GI50: 1.63 µM (inactive)
[44]
  GI50: 1.67 µM (inactive)
[58]
  GI50: 1.69 µM (inactive)
[45]
  GI50: 1.69 µM (inactive)
[46]
  GI50: 1.41 µM (inactive)
[59]
  GI50: 1.69 µM (inactive)
[47]
  GI50: 1.95 µM (inactive)
[48]
  GI50: 2.6 µM (inactive)
[49]
  GI50: 1.97 µM (inactive)
[50]
  GI50: 1.79 µM (inactive)
[51]
  GI50: 1.65 µM (inactive)
[52]
  GI50: 14.3 µM (inactive)
[53]
  GI50: 1.7 µM (inactive)
[54]
  GI50: 1.89 µM (inactive)

## C=[N+](CNC(=O)CNC(=O)C(Cc1ccccc1)NC(=O)OC(C)(C)C)C(=O)CNC(=O)C(Cc1ccccc1)NC(=O)OC(C)(C)C (stereo unspecified)
[2]
  GI50: > 100 µM (inactive)
[3]
  GI50: > 100 µM (inactive)
[4]
  GI50: > 100 µM (inactive)
[5]
  GI50: > 100 µM (inactive)
[6]
  GI50: > 100 µM (inactive)
[8]
  GI50: > 100 µM (inactive)
[9]
  GI50: > 100 µM (inactive)
[10]
  GI50: > 100 µM (inactive)
[11]
  GI50: > 100 µM (inactive)
[12]
  GI50: > 100 µM (inactive)
[13]
  GI50: > 100 µM (inactive)
[14]
  GI50: > 100 µM (inactive)
[15]
  GI50: > 100 µM (inactive)
[16]
  GI50: > 100 µM (inactive)
[17]
  GI50: > 100 µM (inactive)
[19]
  GI50: > 100 µM (inactive)
[20]
  GI50: > 100 µM (inactive)
[55]
  GI50: > 100 µM
[21]
  GI50: > 100 µM (inactive)
[22]
  GI50: > 100 µM (inactive)
[23]
  GI50: > 100 µM (inactive)
[24]
  GI50: > 100 µM (inactive)
[25]
  GI50: > 100 µM (inactive)
[26]
  GI50: > 100 µM (inactive)
[27]
  GI50: > 100 µM (inactive)
[28]
  GI50: > 100 µM (inactive)
[29]
  GI50: > 100 µM (inactive)
[30]
  GI50: > 100 µM (inactive)
[31]
  GI50: > 100 µM (inactive)
[32]
  GI50: > 100 µM (inactive)
[33]
  GI50: > 100 µM (inactive)
[34]
  GI50: > 100 µM (inactive)
[35]
  GI50: > 100 µM (inactive)
[36]
  GI50: > 100 µM (inactive)
[56]
  GI50: > 100 µM (inactive)
[37]
  GI50: > 100 µM (inactive)
[38]
  GI50: > 100 µM (inactive)
[39]
  GI50: > 100 µM (inactive)
[40]
  GI50: > 100 µM (inactive)
[57]
  GI50: > 100 µM (inactive)
[41]
  GI50: > 100 µM (inactive)
[43]
  GI50: > 100 µM (inactive)
[44]
  GI50: > 100 µM (inactive)
[58]
  GI50: > 100 µM (inactive)
[45]
  GI50: > 100 µM (inactive)
[46]
  GI50: > 100 µM (inactive)
[59]
  GI50: > 100 µM (inactive)
[47]
  GI50: > 100 µM (inactive)
[48]
  GI50: > 100 µM (inactive)
[49]
  GI50: > 100 µM (inactive)
[50]
  GI50: > 100 µM (inactive)
[51]
  GI50: > 100 µM (inactive)
[52]
  GI50: > 100 µM (inactive)
[53]
  GI50: > 100 µM (inactive)
[54]
  GI50: > 100 µM (inactive)
